Source: patent US7851471B2, “Compounds I” (AstraZeneca AB (PUBL), priority 2007, dated 2010)

Tests used:
[1] = test system: JEG-3 cells (choriocarcinoma cell line); test: Leptin assay in non-recombinant system: [3H]-thymidine incorporation / proliferation of JEG-3 cells; assay type: cell-based
Protocol: In JEG-3 cells (choriocarcinoma cell line) leptin is able to stimulate proliferation up to 3 fold (Biol. Reprod. (2007) 76: 203-10). […] The radioactivity incorporated by the cells is an index of their proliferative activity and is measured in counts per minute (CPM) with a liquid scintillation beta counter.
This finding can be applied to test whether a compound is able to either reproduce the effect of leptin on cell proliferation (leptin receptor agonist mimetic) (i.e., a given compound will cause an increase in incorporated [^3H]-Thymidine by the cells) or to inhibit the effect of leptin (antagonistic effect) by preventing the leptin-mediated increase in [H]-thymidine incorporation.

[2] = test system: JEG-3 cells (choriocarcinoma cell line); conditions: Biol. Reprod. (2007) 76: 203-10; cited from earlier work

Leptin: a hormone synthesized in fat cells that is believed to act in the hypothalamus to reduce food intake and body weight
concentration giving maximal effect on [3H]-thymidine incorporation ([1]; FIG. 5): 100 nM | EC50 ([1]; FIG. 5, read-out: concentration-dependent increase in [3H]-thymidine incorporation, EC50): 2.1 nM | stimulation of proliferation [2]: up to 3 fold
